The test system of the experiment is MX-1 breast xenograft, nude mice, tumor weight T/C. As to the kind of experiment: NCI In Vivo Anticancer Drug Screen. Data for tumor model Human Mammary Carcinoma MX-1 Xenograft (intrarenal inoculation) in NU/NU Swiss (nude) mice. The conditions noted are these: endpoint: mean tumor weight change, higher = larger tumour. The essentials: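 Compound dosed to mice with transplantable tumor; vehicle group as control. Endpoint survival or tumour size, reported as T/C.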

[1] abbreviates: dose: 400.0 mg/kg/injection, schedule: Q04DX003 (sc), vehicle: Klucel (hydroxypropylcellulose) (HPC).
Where [2] appears, read: dose: 600.0 mg/kg/injection, schedule: Q04DX003 (sc), vehicle: saline with Tween-80.
[3] abbreviates: dose: 1200.0 mg/kg/injection, schedule: Q04DX003 (sc), vehicle: saline with Tween-80.
Where [4] appears, read: dose: 100.0 mg/kg/injection, schedule: Q01DX010 (sc), vehicle: Klucel (hydroxypropylcellulose) (HPC).
Setting [5] is: dose: 12.5 mg/kg/injection, schedule: Q01DX010 (sc), vehicle: saline with Tween-80.
Where [6] appears, read: dose: 25.0 mg/kg/injection, schedule: Q01DX010 (sc), vehicle: saline with Tween-80.
Where [7] appears, read: dose: 300.0 mg/kg/injection, schedule: Q04DX003 (sc), vehicle: saline with Tween-80.

Values joined by “and” are separate entries in the source; they are usually repeats but may differ in a detail not shown here. Identical values can stand only once. Inconclusive results are not listed.

Turning to `O=Cc1ccccc1`, the T/C reads like this: (dose: 200.0 mg/kg/injection, schedule: Q04DX003 (sc), vehicle: Klucel (hydroxypropylcellulose) (HPC)) 96 % of control; under setting [1], 92 % of control; (dose: 800.0 mg/kg/injection, schedule: Q04DX003 (sc), vehicle: Klucel (hydroxypropylcellulose) (HPC)) 85 % of control.
On to `CCN1C=C/C(=C\C=C/c2cc[n+](CC)c3ccccc23)c2ccccc21`, for which the T/C was 111 % of control (dose: 0.25 mg/kg/injection, schedule: Q01DX010 (sc), vehicle: saline); 173 % of control (dose: 0.5 mg/kg/injection, schedule: Q01DX010 (sc), vehicle: saline); 82 % of control (dose: 1.0 mg/kg/injection, schedule: Q01DX010 (sc), vehicle: saline).
In the case of `C[n+]1cccc(NC(=O)c2ccc(NC(=O)C34CCC(C(=O)Nc5ccc(C(=O)Nc6ccc[n+](C)c6)cc5)(CC3)CC4)cc2)c1`, the T/C (dose: 12.5 mg/kg/injection, schedule: Q04DX003 (sc), vehicle: saline with Tween-80) was 118 % of control; the T/C (dose: 25.0 mg/kg/injection, schedule: Q04DX003 (sc), vehicle: saline with Tween-80) was 64 % of control; the T/C (dose: 50.0 mg/kg/injection, schedule: Q04DX003 (sc), vehicle: saline with Tween-80) is 35 % of control; the T/C (dose: 100.0 mg/kg/injection, schedule: Q04DX003 (sc), vehicle: saline with Tween-80) is 27 % of control.
For the compound `C/C(=N\NC(N)=O)c1cccc(/C(C)=N/NC(N)=O)n1`, the T/C reads like this: under setting [2], 98 % of control; under setting [3], 74 % of control.
Take `OCC12COCN1COC2`: the T/C (dose: 300.0 mg/kg/injection, schedule: Q04DX003 (sc), vehicle: saline) was 80 % of control; the T/C (dose: 600.0 mg/kg/injection, schedule: Q04DX003 (sc), vehicle: saline) is 102 % of control; the T/C (dose: 1200.0 mg/kg/injection, schedule: Q04DX003 (sc), vehicle: saline) was 109 % of control; the T/C (dose: 2400.0 mg/kg/injection, schedule: Q04DX003 (sc), vehicle: saline) is 122 % of control.
As to `CC(=O)OCc1cc(=O)n(C)c2c3c4c(cc12)c(C)cc(=O)n4CO3`, the T/C was 120 % of control (dose: 50.0 mg/kg/injection, schedule: Q01DX010 (sc), vehicle: Klucel (hydroxypropylcellulose) (HPC)) and 92 % of control under setting [4].
As for `CNC(=O)/C=C/C1=CN2C(=O)c3ccc(C)c(O)c3NC(OC)C2C1` (stereo unspecified), the T/C is, setting by setting: (dose: 0.2 mg/kg/injection, schedule: Q04DX003 (sc), vehicle: saline) 82 % of control; (dose: 0.4 mg/kg/injection, schedule: Q04DX003 (ip), vehicle: saline) 18 % of control and 21 % of control; (dose: 1.6 mg/kg/injection, schedule: Q04DX003 (sc), vehicle: saline) 3 % of control.
`CN1CCN(Cc2nc3cccc4c3c([n+]2[O-])-c2ccccc2-4)CC1`: the T/C was 72 % of control under setting [5]; 96 % of control under setting [6]; 35 % of control (dose: 400.0 mg/kg/injection, schedule: Q01DX010 (sc), vehicle: saline with Tween-80).
As for `CC(=O)OCC1OC(n2cc(CBr)nn2)C(OC(C)=O)C(OC(C)=O)C1OC(C)=O` (stereo unspecified), the T/C reads like this: under setting [5], 106 % of control; under setting [6], 117 % of control; (dose: 50.0 mg/kg/injection, schedule: Q01DX010 (sc), vehicle: saline with Tween-80) 117 % of control.
For the compound `Cn1c2ccccc2c2ccc3c(c21)C(=O)C=CC3=O`, the T/C is 62 % of control (dose: 75.0 mg/kg/injection, schedule: Q04DX003 (sc), vehicle: saline with Tween-80); 61 % of control (dose: 150.0 mg/kg/injection, schedule: Q04DX003 (sc), vehicle: saline with Tween-80); 117 % of control under setting [7]; 88 % of control under setting [2].
For the compound `CCC1=C[C@H]2CN(CCc3c([nH]c4ccccc34)[C@@](C(=O)OC)(c3cc4c(cc3OC)N(C)[C@H]3[C@@](O)(C(=O)OC)[C@H](OC(C)=O)[C@]5(CC)C=CCN6CC[C@]43[C@@H]65)C2)C1`, the T/C was 108 % of control (dose: 3.0 mg/kg/injection, schedule: Q04DX003 (sc), vehicle: water); 84 % of control (dose: 6.0 mg/kg/injection, schedule: Q04DX003 (sc), vehicle: water); 56 % of control (dose: 12.0 mg/kg/injection, schedule: Q04DX003 (sc), vehicle: water).
As to `COC(=O)Nc1cccc(-c2nc3ccc(NC(=O)OC)cc3c(=O)n2-c2ccccc2)c1`, the T/C by setting is: (dose: 25.0 mg/kg/injection, schedule: Q01DX010 (sc), vehicle: Klucel (hydroxypropylcellulose) (HPC)) 87 % of control; under setting [4], 33 % of control; (dose: 400.0 mg/kg/injection, schedule: Q01DX010 (sc), vehicle: Klucel (hydroxypropylcellulose) (HPC)) 123 % of control.
In the case of `CCOC(=O)C1(c2ccccc2)C(=O)Oc2ccccc21` (stereo unspecified), the T/C reads like this: under setting [7], 99 % of control; under setting [2], 103 % of control; under setting [3], 101 % of control; (dose: 2400.0 mg/kg/injection, schedule: Q04DX003 (sc), vehicle: saline with Tween-80) 99 % of control.
With `S=c1[nH]cc2cnccn12`, the T/C was 104 % of control under setting [7], 97 % of control under setting [2] and 106 % of control under setting [3].
For `CCN(CC)CCn1[nH]c2c3ccc(=O)cc3sc3c(NCCN)ccc1c32`, the T/C was 73 % of control (dose: 6.25 mg/kg/injection, schedule: Q04DX003 (ip), vehicle: water) and 63 % of control (dose: 12.5 mg/kg/injection, schedule: Q04DX003 (ip), vehicle: water).
With `Nc1ncnc2c1ccn2C1OC(CO)C(O)C1O` (stereo unspecified), the T/C is, setting by setting: (dose: 1.0 mg/kg/injection, schedule: Q01DX010 (sc), vehicle: Klucel (hydroxypropylcellulose) (HPC)) 101 % of control; (dose: 2.0 mg/kg/injection, schedule: Q01DX010 (sc), vehicle: Klucel (hydroxypropylcellulose) (HPC)) 157 % of control; (dose: 4.0 mg/kg/injection, schedule: Q01DX010 (sc), vehicle: Klucel (hydroxypropylcellulose) (HPC)) 75 % of control.
Consider `O=C(CC(=O)C(F)(F)F)c1csc2ccccc12`, for which the T/C by setting is: (dose: 300.0 mg/kg/injection, schedule: Q04DX003 (sc), vehicle: Klucel (hydroxypropylcellulose) (HPC)) 87 % of control; (dose: 600.0 mg/kg/injection, schedule: Q04DX003 (sc), vehicle: Klucel (hydroxypropylcellulose) (HPC)) 91 % of control; (dose: 1200.0 mg/kg/injection, schedule: Q04DX003 (sc), vehicle: Klucel (hydroxypropylcellulose) (HPC)) 111 % of control; (dose: 2400.0 mg/kg/injection, schedule: Q04DX003 (sc), vehicle: Klucel (hydroxypropylcellulose) (HPC)) 99 % of control.
In the case of `CC1(O)CC23CC(O)C4(O)C(CC(O)C4(C)C)C(C)(O)C2CCC1C3O` (stereo unspecified), the T/C (dose: 0.25 mg/kg/injection, schedule: Q04DX003 (sc), vehicle: Klucel (hydroxypropylcellulose) (HPC)) was 162 % of control.
As for `O=C(O)/C=C/C(=O)Nc1ccc(Cl)c(Cl)c1`, the T/C (dose: 50.0 mg/kg/injection, schedule: Q04DX003 (sc), vehicle: Klucel (hydroxypropylcellulose) (HPC)) is 111 % of control; the T/C (dose: 100.0 mg/kg/injection, schedule: Q04DX003 (sc), vehicle: Klucel (hydroxypropylcellulose) (HPC)) was 91 % of control; the T/C under setting [1] is 120 % of control.
In the case of `O=C1c2ccccc2C(=O)c2c3c(cc(NCCNCCO)c21)N(CCO)CCN3`, the T/C by setting is: (dose: 12.5 mg/kg/injection, schedule: Q04DX003 (sc), vehicle: DMSO) 95 % of control; (dose: 25.0 mg/kg/injection, schedule: Q04DX003 (sc), vehicle: DMSO) 101 % of control; (dose: 50.0 mg/kg/injection, schedule: Q04DX003 (sc), vehicle: DMSO) 77 % of control; (dose: 100.0 mg/kg/injection, schedule: Q04DX003 (sc), vehicle: DMSO) 111 % of control; (dose: 200.0 mg/kg/injection, schedule: Q04DX003 (sc), vehicle: DMSO) 151 % of control.
Regarding `CCC(=O)N(C)[C@@H](C)C(=O)O[C@H]1CC(=O)N(C)c2cc(cc(OC)c2Cl)C/C(C)=C/C=C[C@@H](OC)[C@@]2(O)C[C@H](OC(=O)N2)[C@@H](C)[C@@H]2O[C@@]12C`, the T/C (dose: 0.07 mg/kg/injection, schedule: Q04DX003 (sc), vehicle: saline + alcohol) was 117 % of control; the T/C (dose: 0.13 mg/kg/injection, schedule: Q04DX003 (sc), vehicle: saline + alcohol) is 98 % of control; the T/C (dose: 0.25 mg/kg/injection, schedule: Q04DX003 (sc), vehicle: saline + alcohol) is 88 % of control; the T/C (dose: 0.5 mg/kg/injection, schedule: Q04DX003 (sc), vehicle: saline + alcohol) was 7 % of control.

For the origin of these results see PubChem BioAssay AID296 (DTP/NCI, 2004).
